What all share (assay type): cell-based
Data set [1] deals with human NaV1.7 (Homo sapiens, UniProt Q15858). The data set can be described thus: IonWorks Quattro (IWQ) electrophysiology, human NaV1.7.
Data set [2] deals with human NaV1.4 (Homo sapiens, UniProt P35499). The data set can be described thus: IonWorks Quattro (IWQ) electrophysiology, human NaV1.4.
The target in data set [3] is human NaV1.5 (Homo sapiens, UniProt Q14524). The experiment in a line: IonWorks Quattro (IWQ) electrophysiology, human NaV1.5.
The mark [4] stands for this setting: read-out: Ala mutant IWQ IC50 NaV1.7.
Where [5] appears, read: read-out: Ala mutant IWQ IC50 NaV1.4.
The mark [6] stands for this setting: read-out: Ala mutant IWQ IC50 NaV1.5.
Where [7] appears, read: read-out: Glu mutant IWQ IC50 NaV1.7.
The mark [8] stands for this setting: read-out: Glu mutant IWQ IC50 NaV1.4.
Setting [9] is: read-out: Glu mutant IWQ IC50 NaV1.5.

Like-named read-outs stand apart in the source and are kept apart here.

human NaV1.7, sequence (Q15858 whole entry): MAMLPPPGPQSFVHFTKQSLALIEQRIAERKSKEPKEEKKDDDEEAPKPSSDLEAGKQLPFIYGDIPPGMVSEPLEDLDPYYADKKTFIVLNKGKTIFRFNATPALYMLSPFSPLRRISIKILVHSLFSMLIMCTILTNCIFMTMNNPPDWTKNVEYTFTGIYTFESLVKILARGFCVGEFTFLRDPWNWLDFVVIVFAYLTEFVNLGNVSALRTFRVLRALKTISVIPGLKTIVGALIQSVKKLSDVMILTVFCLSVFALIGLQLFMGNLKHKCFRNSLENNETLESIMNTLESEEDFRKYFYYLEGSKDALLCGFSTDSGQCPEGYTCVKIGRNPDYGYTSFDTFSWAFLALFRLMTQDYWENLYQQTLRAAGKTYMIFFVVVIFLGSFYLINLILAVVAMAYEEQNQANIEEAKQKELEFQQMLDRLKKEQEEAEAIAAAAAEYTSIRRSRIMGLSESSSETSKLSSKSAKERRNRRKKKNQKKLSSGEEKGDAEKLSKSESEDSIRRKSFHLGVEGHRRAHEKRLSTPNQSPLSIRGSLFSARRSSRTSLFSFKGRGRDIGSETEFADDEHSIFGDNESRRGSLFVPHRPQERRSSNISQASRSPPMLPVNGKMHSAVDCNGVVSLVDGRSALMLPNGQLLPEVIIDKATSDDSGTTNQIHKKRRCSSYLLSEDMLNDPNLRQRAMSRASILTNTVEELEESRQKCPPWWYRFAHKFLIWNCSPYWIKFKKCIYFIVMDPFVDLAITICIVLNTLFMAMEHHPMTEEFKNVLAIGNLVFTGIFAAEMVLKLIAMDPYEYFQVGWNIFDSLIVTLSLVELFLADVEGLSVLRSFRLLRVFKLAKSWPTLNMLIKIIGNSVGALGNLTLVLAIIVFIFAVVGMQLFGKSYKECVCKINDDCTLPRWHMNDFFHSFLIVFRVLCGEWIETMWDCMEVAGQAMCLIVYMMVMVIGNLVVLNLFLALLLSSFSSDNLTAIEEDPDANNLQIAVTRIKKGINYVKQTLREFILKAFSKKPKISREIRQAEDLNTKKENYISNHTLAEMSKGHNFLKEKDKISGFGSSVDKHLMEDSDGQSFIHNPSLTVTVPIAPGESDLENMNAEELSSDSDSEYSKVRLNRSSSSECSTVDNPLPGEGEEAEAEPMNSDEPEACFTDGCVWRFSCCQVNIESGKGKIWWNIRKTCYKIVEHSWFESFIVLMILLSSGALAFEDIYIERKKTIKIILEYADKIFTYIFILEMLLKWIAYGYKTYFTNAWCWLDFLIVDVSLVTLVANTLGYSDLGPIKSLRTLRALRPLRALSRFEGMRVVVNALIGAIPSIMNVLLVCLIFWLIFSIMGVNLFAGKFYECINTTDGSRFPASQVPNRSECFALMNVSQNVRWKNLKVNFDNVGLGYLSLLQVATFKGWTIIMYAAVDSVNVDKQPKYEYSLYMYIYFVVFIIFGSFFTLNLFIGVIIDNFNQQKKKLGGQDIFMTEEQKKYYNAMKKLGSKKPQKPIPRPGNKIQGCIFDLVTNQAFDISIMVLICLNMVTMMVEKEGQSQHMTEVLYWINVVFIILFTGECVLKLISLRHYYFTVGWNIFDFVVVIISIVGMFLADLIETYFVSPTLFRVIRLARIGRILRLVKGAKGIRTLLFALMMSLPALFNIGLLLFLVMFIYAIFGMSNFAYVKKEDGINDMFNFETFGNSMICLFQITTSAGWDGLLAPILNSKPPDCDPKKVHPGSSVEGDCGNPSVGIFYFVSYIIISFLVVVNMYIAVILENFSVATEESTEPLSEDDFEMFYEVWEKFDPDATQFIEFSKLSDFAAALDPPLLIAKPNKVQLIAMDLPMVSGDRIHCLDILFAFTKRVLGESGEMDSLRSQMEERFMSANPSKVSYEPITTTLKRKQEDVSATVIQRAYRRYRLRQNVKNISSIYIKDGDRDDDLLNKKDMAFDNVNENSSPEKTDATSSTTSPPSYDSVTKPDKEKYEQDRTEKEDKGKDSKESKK
human NaV1.5, sequence (Q14524 whole entry): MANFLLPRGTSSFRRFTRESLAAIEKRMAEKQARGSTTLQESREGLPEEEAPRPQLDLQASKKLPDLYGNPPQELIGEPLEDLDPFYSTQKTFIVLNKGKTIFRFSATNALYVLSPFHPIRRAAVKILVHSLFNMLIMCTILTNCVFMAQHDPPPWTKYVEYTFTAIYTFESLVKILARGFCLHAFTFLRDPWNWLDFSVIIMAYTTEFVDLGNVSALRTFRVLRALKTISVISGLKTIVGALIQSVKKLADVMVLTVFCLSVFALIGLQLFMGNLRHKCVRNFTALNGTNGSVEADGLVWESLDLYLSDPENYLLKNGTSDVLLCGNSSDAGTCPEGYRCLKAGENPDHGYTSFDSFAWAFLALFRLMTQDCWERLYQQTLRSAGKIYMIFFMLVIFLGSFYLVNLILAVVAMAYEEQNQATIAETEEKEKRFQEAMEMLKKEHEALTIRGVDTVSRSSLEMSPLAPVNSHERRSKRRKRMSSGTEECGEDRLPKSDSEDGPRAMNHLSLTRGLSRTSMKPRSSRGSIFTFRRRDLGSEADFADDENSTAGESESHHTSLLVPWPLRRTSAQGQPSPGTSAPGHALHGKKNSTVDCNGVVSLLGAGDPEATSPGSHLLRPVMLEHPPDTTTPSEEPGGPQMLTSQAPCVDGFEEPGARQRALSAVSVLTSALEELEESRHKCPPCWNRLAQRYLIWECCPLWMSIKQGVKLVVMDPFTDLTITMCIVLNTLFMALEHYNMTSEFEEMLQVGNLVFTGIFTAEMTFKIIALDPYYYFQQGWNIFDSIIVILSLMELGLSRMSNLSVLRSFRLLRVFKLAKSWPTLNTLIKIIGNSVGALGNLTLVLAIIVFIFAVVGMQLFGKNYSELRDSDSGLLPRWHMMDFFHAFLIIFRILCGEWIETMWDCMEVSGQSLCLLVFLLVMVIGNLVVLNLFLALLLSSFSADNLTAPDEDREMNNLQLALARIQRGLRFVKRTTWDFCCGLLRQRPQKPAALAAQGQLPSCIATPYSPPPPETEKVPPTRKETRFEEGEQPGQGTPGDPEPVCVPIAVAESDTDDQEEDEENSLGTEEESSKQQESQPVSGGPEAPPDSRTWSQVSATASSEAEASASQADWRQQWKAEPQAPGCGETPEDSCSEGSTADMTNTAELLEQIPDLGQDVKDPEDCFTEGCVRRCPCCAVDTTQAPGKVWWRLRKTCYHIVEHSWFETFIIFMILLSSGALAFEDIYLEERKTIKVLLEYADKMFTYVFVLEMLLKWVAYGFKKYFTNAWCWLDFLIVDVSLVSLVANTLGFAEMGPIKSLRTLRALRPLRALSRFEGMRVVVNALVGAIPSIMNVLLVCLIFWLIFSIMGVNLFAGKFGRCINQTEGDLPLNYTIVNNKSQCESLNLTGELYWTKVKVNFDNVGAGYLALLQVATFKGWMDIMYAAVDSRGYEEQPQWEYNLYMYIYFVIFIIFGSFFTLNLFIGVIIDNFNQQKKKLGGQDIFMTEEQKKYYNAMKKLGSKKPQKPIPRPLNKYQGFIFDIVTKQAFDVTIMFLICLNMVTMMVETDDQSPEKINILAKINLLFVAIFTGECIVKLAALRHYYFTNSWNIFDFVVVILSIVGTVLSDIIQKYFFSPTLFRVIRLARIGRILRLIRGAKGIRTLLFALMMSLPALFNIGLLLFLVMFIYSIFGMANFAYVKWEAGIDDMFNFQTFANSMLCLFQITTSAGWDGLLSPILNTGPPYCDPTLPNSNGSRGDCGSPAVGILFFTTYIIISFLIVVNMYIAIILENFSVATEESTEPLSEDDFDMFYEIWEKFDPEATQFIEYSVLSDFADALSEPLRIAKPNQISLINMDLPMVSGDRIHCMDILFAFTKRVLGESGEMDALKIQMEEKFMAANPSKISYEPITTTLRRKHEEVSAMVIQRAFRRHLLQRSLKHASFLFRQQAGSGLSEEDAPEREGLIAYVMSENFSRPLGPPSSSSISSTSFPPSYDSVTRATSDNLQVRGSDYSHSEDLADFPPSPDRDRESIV

`CC[C@H](C)[C@H](NC(=O)[C@@H](NC(=O)[C@H](CCCCN)NC(=O)[C@H](CCCNC(=N)N)NC(=O)[C@@H]1CSSC[C@@H]2NC(=O)[C@H](C)NC(=O)[C@H](CCCNC(=N)N)NC(=O)[C@H](CCCCN)NC(=O)[C@H](CO)NC(=O)[C@H](CC(=O)O)NC(=O)[C@@H]3CSSC[C@H](NC(=O)[C@H](CCCNC(=N)N)NC(=O)[C@H](CC(C)C)NC(=O)CNC(=O)[C@H](CCC(=O)O)NC(=O)[C@H](CSSC[C@H](NC(=O)[C@@H](N)Cc4ccc(O)cc4)C(=O)N[C@@H](CCC(N)=O)C(=O)N[C@@H](CCCCN)C(=O)N[C@@H](Cc4c[nH]c5ccccc45)C(=O)N[C@@H](CCSC)C(=O)N[C@@H](Cc4c[nH]c5ccccc45)C(=O)N[C@@H]([C@@H](C)O)C(=O)N3)NC2=O)C(=O)N[C@@H](CCCCN)C(=O)N[C@@H](CC(C)C)C(=O)N[C@@H](C)C(=O)N1)[C@@H](C)CC)C(N)=O` [W24 Ala mutant]: the IC50 in data set [1] (setting [4]), in data set [2] (setting [5]) and in data set [3] (setting [6]) was above 10 µM each time.
Regarding `CC[C@H](C)[C@H](NC(=O)[C@@H](NC(=O)[C@H](CCCCN)NC(=O)[C@H](CCCNC(=N)N)NC(=O)[C@@H]1CSSC[C@@H]2NC(=O)[C@H](C)NC(=O)[C@H](CCCNC(=N)N)NC(=O)[C@H](CCC(=O)O)NC(=O)[C@H](CO)NC(=O)[C@H](CC(=O)O)NC(=O)[C@@H]3CSSC[C@H](NC(=O)[C@H](CCCNC(=N)N)NC(=O)[C@H](CC(C)C)NC(=O)CNC(=O)[C@H](CCC(=O)O)NC(=O)[C@H](CSSC[C@H](NC(=O)[C@@H](N)Cc4ccc(O)cc4)C(=O)N[C@@H](CCC(N)=O)C(=O)N[C@@H](CCCCN)C(=O)N[C@@H](Cc4c[nH]c5ccccc45)C(=O)N[C@@H](CCSC)C(=O)N[C@@H](Cc4c[nH]c5ccccc45)C(=O)N[C@@H]([C@@H](C)O)C(=O)N3)NC2=O)C(=O)N[C@@H](CCCCN)C(=O)N[C@@H](CC(C)C)C(=O)N[C@@H](Cc2c[nH]c3ccccc23)C(=O)N1)[C@@H](C)CC)C(N)=O` [K12 Glu mutant], the IC50 is 0.755 µM in data set [1] (setting [7]), above 10 µM in data set [2] (setting [8]) and above 10 µM in data set [3] (setting [9]).
Consider `CC[C@H](C)[C@H](NC(=O)[C@@H](NC(=O)[C@H](CCCCN)NC(=O)[C@H](CCCNC(=N)N)NC(=O)[C@@H]1CSSC[C@@H]2NC(=O)[C@H](C)NC(=O)[C@H](CCCNC(=N)N)NC(=O)[C@H](CCCCN)NC(=O)[C@H](CO)NC(=O)[C@H](CC(=O)O)NC(=O)[C@@H]3CSSC[C@H](NC(=O)[C@H](CCCNC(=N)N)NC(=O)[C@H](CC(C)C)NC(=O)CNC(=O)[C@H](CCC(=O)O)NC(=O)[C@H](CSSC[C@H](NC(=O)[C@@H](N)Cc4ccc(O)cc4)C(=O)N[C@@H](CCC(N)=O)C(=O)N[C@@H](CCCCN)C(=O)N[C@@H](CCC(=O)O)C(=O)N[C@@H](CCSC)C(=O)N[C@@H](Cc4c[nH]c5ccccc45)C(=O)N[C@@H]([C@@H](C)O)C(=O)N3)NC2=O)C(=O)N[C@@H](CCCCN)C(=O)N[C@@H](CC(C)C)C(=O)N[C@@H](Cc2c[nH]c3ccccc23)C(=O)N1)[C@@H](C)CC)C(N)=O` [W5 Glu mutant], for which the IC50 in data set [1] (setting [7]), in data set [2] (setting [8]) and in data set [3] (setting [9]) was above 10 µM each time.
As for `CC[C@H](C)[C@H](NC(=O)[C@@H](NC(=O)[C@H](C)NC(=O)[C@H](CCCNC(=N)N)NC(=O)[C@@H]1CSSC[C@@H]2NC(=O)[C@H](C)NC(=O)[C@H](CCCNC(=N)N)NC(=O)[C@H](CCCCN)NC(=O)[C@H](CO)NC(=O)[C@H](CC(=O)O)NC(=O)[C@@H]3CSSC[C@H](NC(=O)[C@H](CCCNC(=N)N)NC(=O)[C@H](CC(C)C)NC(=O)CNC(=O)[C@H](CCC(=O)O)NC(=O)[C@H](CSSC[C@H](NC(=O)[C@@H](N)Cc4ccc(O)cc4)C(=O)N[C@@H](CCC(N)=O)C(=O)N[C@@H](CCCCN)C(=O)N[C@@H](Cc4c[nH]c5ccccc45)C(=O)N[C@@H](CCSC)C(=O)N[C@@H](Cc4c[nH]c5ccccc45)C(=O)N[C@@H]([C@@H](C)O)C(=O)N3)NC2=O)C(=O)N[C@@H](CCCCN)C(=O)N[C@@H](CC(C)C)C(=O)N[C@@H](Cc2c[nH]c3ccccc23)C(=O)N1)[C@@H](C)CC)C(N)=O` [K27 Ala mutant], the concentration for half-maximal inhibition (IC50) in data set [1] (setting [4]) was 0.374 µM; in data set [2] (setting [5]) it was 2.32 µM; in data set [3] (setting [6]), above 10 µM.
For `CC[C@H](C)[C@H](NC(=O)[C@@H](NC(=O)[C@H](CCCCN)NC(=O)[C@H](CCCNC(=N)N)NC(=O)[C@@H]1CSSC[C@@H]2NC(=O)[C@H](C)NC(=O)[C@H](CCCNC(=N)N)NC(=O)[C@H](CCCCN)NC(=O)[C@H](CO)NC(=O)[C@H](CC(=O)O)NC(=O)[C@@H]3CSSC[C@H](NC(=O)[C@H](CCCNC(=N)N)NC(=O)[C@H](CC(C)C)NC(=O)CNC(=O)[C@H](CCC(=O)O)NC(=O)[C@H](CSSC[C@H](NC(=O)[C@@H](N)Cc4ccc(O)cc4)C(=O)N[C@@H](CCC(N)=O)C(=O)N[C@@H](CCCCN)C(=O)N[C@@H](Cc4c[nH]c5ccccc45)C(=O)N[C@@H](CCC(=O)O)C(=O)N[C@@H](Cc4c[nH]c5ccccc45)C(=O)N[C@@H]([C@@H](C)O)C(=O)N3)NC2=O)C(=O)N[C@@H](CCCCN)C(=O)N[C@@H](CC(C)C)C(=O)N[C@@H](Cc2c[nH]c3ccccc23)C(=O)N1)[C@@H](C)CC)C(N)=O` [M6 Glu mutant], the IC50 in data set [1] (setting [7]), in data set [2] (setting [8]) and in data set [3] (setting [9]) was above 10 µM throughout.
With `CC[C@H](C)[C@H](NC(=O)[C@@H](NC(=O)[C@H](CCCCN)NC(=O)[C@H](CCCNC(=N)N)NC(=O)[C@@H]1CSSC[C@@H]2NC(=O)[C@H](C)NC(=O)[C@H](CCCNC(=N)N)NC(=O)[C@H](CCCCN)NC(=O)[C@H](CO)NC(=O)[C@H](CC(=O)O)NC(=O)[C@@H]3CSSC[C@H](NC(=O)[C@H](CCCNC(=N)N)NC(=O)[C@H](CC(C)C)NC(=O)CNC(=O)[C@H](CCC(=O)O)NC(=O)[C@H](CSSC[C@H](NC(=O)[C@@H](N)Cc4ccc(O)cc4)C(=O)N[C@@H](CCC(N)=O)C(=O)N[C@@H](CCC(=O)O)C(=O)N[C@@H](Cc4c[nH]c5ccccc45)C(=O)N[C@@H](CCSC)C(=O)N[C@@H](Cc4c[nH]c5ccccc45)C(=O)N[C@@H]([C@@H](C)O)C(=O)N3)NC2=O)C(=O)N[C@@H](CCCCN)C(=O)N[C@@H](CC(C)C)C(=O)N[C@@H](Cc2c[nH]c3ccccc23)C(=O)N1)[C@@H](C)CC)C(N)=O` [K4 Glu mutant], the IC50 in data set [1] (setting [7]) was 0.106 µM; in data set [2] (setting [8]) it was 0.967 µM; in data set [3] (setting [9]), above 10 µM.
As to `CC[C@H](C)[C@H](NC(=O)[C@@H](NC(=O)[C@H](CCCCN)NC(=O)[C@H](CCCNC(=N)N)NC(=O)[C@@H]1CSSC[C@@H]2NC(=O)[C@H](C)NC(=O)[C@H](CCCNC(=N)N)NC(=O)[C@H](CCCCN)NC(=O)[C@H](CO)NC(=O)[C@H](CC(=O)O)NC(=O)[C@@H]3CSSC[C@H](NC(=O)[C@H](CCCNC(=N)N)NC(=O)[C@H](CC(C)C)NC(=O)[C@H](C)NC(=O)[C@H](CCC(=O)O)NC(=O)[C@H](CSSC[C@H](NC(=O)[C@@H](N)Cc4ccc(O)cc4)C(=O)N[C@@H](CCC(N)=O)C(=O)N[C@@H](CCCCN)C(=O)N[C@@H](Cc4c[nH]c5ccccc45)C(=O)N[C@@H](CCSC)C(=O)N[C@@H](Cc4c[nH]c5ccccc45)C(=O)N[C@@H]([C@@H](C)O)C(=O)N3)NC2=O)C(=O)N[C@@H](CCCCN)C(=O)N[C@@H](CC(C)C)C(=O)N[C@@H](Cc2c[nH]c3ccccc23)C(=O)N1)[C@@H](C)CC)C(N)=O` [G18 Ala mutant], the IC50 in data set [2] (setting [5]) was 0.265 µM; in data set [3] (human, read-out: Ala mutant IWQ IC50 NaV1.5) it was above 5 µM.
Turning to `CC[C@H](C)[C@H](NC(=O)[C@@H](NC(=O)[C@H](CCCCN)NC(=O)[C@H](CCC(=O)O)NC(=O)[C@@H]1CSSC[C@@H]2NC(=O)[C@H](C)NC(=O)[C@H](CCCNC(=N)N)NC(=O)[C@H](CCCCN)NC(=O)[C@H](CO)NC(=O)[C@H](CC(=O)O)NC(=O)[C@@H]3CSSC[C@H](NC(=O)[C@H](CCCNC(=N)N)NC(=O)[C@H](CC(C)C)NC(=O)CNC(=O)[C@H](CCC(=O)O)NC(=O)[C@H](CSSC[C@H](NC(=O)[C@@H](N)Cc4ccc(O)cc4)C(=O)N[C@@H](CCC(N)=O)C(=O)N[C@@H](CCCCN)C(=O)N[C@@H](Cc4c[nH]c5ccccc45)C(=O)N[C@@H](CCSC)C(=O)N[C@@H](Cc4c[nH]c5ccccc45)C(=O)N[C@@H]([C@@H](C)O)C(=O)N3)NC2=O)C(=O)N[C@@H](CCCCN)C(=O)N[C@@H](CC(C)C)C(=O)N[C@@H](Cc2c[nH]c3ccccc23)C(=O)N1)[C@@H](C)CC)C(N)=O` [R26 Glu mutant], the IC50 in data set [1] (setting [7]), in data set [2] (setting [8]) and in data set [3] (setting [9]) was above 10 µM each time.
For `CC[C@H](C)[C@H](NC(=O)[C@@H](NC(=O)[C@H](CCCCN)NC(=O)[C@H](CCCNC(=N)N)NC(=O)[C@@H]1CSSC[C@@H]2NC(=O)[C@H](C)NC(=O)[C@H](CCCNC(=N)N)NC(=O)[C@H](CCCCN)NC(=O)[C@H](CO)NC(=O)[C@H](CC(=O)O)NC(=O)[C@@H]3CSSC[C@H](NC(=O)[C@H](CCCNC(=N)N)NC(=O)[C@H](CC(C)C)NC(=O)CNC(=O)[C@H](CCC(=O)O)NC(=O)[C@H](CSSC[C@H](NC(=O)[C@@H](N)CCC(=O)O)C(=O)N[C@@H](CCC(N)=O)C(=O)N[C@@H](CCCCN)C(=O)N[C@@H](Cc4c[nH]c5ccccc45)C(=O)N[C@@H](CCSC)C(=O)N[C@@H](Cc4c[nH]c5ccccc45)C(=O)N[C@@H]([C@@H](C)O)C(=O)N3)NC2=O)C(=O)N[C@@H](CCCCN)C(=O)N[C@@H](CC(C)C)C(=O)N[C@@H](Cc2c[nH]c3ccccc23)C(=O)N1)[C@@H](C)CC)C(N)=O` [Y1 Glu mutant], the IC50 in data set [2] (setting [8]) was 0.235 µM; in data set [3] (human, read-out: Glu mutant IWQ IC50 NaV1.5), above 5 µM.

The values above are taken from paper PMC5933747 (PLoS ONE, 2018).
